# Laboratory results from patent US20250325567A1, “COADMINISTRATION OF POLYC[…] AMINE/AMIDE A[…] ENHANCE EFFICACY AGAINST PAIN” (University of Connecticut, priority 2024, published 2025).
# Entries after “also recorded” stand apart in the source; their conditions may differ.
# How the values were obtained:
# [1] = tested on: activated bone marrow macrophages; test: Anti-inflammatory response, pro-inflammatory marker gene expression; assay type: cell-based; settings: for IL-1B gene expression / IL-6 gene expression / Nos2 gene expression / TNF-α gene expression: 20 μM
# Excerpt: FIG. 5 Anti-inflammatory efficacy of Dicannabidiol (diCBD) adipate and AM1241 towards inflamed bone marrow macrophages.
# AM1241 was used as comparison due to its commercial availability.
# [2] = Solubility study at different pHs; assay type: physicochemical; settings: 1 mg in 1 mL of water and ethanol, pH 1 to pH 12
# Protocol: A solubility study was conducted on the Dicannabidiol adipate at different pHs. Twelve vials were prepared by placing 1 mg of the dimer in 1 mL of water and ethanol of different pH, from pH 1 to pH 12. […] The hypothesis for the dimer being soluble in basic water is due to the bonding of the base with the phenolic oxygen of the dimer, thus producing the salt and easily solubilizing in water. […] Adipic acid is widely used in food and medicinal applications and is considered compatible and safe in the human body.
# [3] = Degradation study: thermal and UV light; assay type: physicochemical
# Protocol: A degradation study was conducted in two parts: thermal degradation and UV light degradation. In the thermal degradation study, the Dicannabidiol adipate was heated to 175° C. in aerobic and anaerobic conditions and the changes were monitored by 1H NMR spectroscopy. In the UV light exposure study, a sample of Dicannabidiol adipate was kept under environmental conditions and UV light for several days and was constantly monitored by 1H NMR spectroscopy. From the results of the two experiments, it was concluded that the Dicannabidiol adipate is stable against the degradation caused from heat and UV exposure. […] This limits its misuse and abuse. Further, this indicates there will be no need to refrigerate the CBD-adipate dimer drug, and less issues, compared to CBD, with its shipping/handling.
# F-11 (neuronal) cells = test: Dose dependent cytotoxicity towards F-11 neuronal cells; assay type: cell-based; settings: F11 cells, 24 hour incubation; for cytotoxicity: up to 20 μM
# Protocol: FIG. 4 Dose dependent cytotoxicity of Dicannabidiol (diCBD) adipate and AM1241 towards F-11 (neuronal) cells after 24 hour incubation.
# rat osteoarthritis model = test: Rat osteoarthritis model (monoiodo acetate), mechanical allodynia; assay type: in vivo
# Protocol: Briefly, baseline behavioral measurements were quantified prior to induction of osteoarthritis. Monoiodo acetate was used to induce osteoarthritis via intra-articular injection into the rear right knee joint followed 24 hours later by a single intra-articular injection of the designated treatment group (FIG. 9).
smiles,measurement,setting,value
C=C(C)[C@@H]1CCC(C)=C[C@H]1c1c(O)cc(CCCCC)cc1OC(=O)CCCCC(=O)Oc1cc(CCCCC)cc(O)c1[C@@H]1C=C(C)CC[C@H]1C(=C)C [Dicannabidiol adipate],anti-inflammatory effect in vitro,[1],potent anti-inflammatory effect
same,IL-1B gene expression,[1],significantly downregulate; also recorded: significant reduction
same,IL-6 gene expression,[1],significantly downregulate; also recorded: significant reduction
same,Nos2 gene expression,[1],significantly downregulate; also recorded: significant reduction
same,TNF-α gene expression,[1],Neither of these drugs showed any significant effect
same,solubility in acidic conditions,[2]; acidic,not soluble
same,solubility in basic pH,[2]; basic,solubilizes
same,stability against degradation caused from UV exposure,"[3]; environmental conditions and UV light for several days, monitored by 1H NMR",stable
same,stability against degradation caused from heat,"[3]; heated to 175° C., aerobic and anaerobic, monitored by 1H NMR",stable
same,degradation into psychoactive molecules such as THC,[3]; thermal,does not degrade
same,cell viability,F-11 (neuronal) cells; 20 μM,above 80%
same,cytotoxicity,F-11 (neuronal) cells,minimal cytotoxicity; also recorded: no cytotoxicity; also recorded: minimal toxicity
same,cytotoxicity,F-11 (neuronal) cells; listed as CBD-adipate dimer,minimal dose dependent cell toxicity
"CN1CCCCC1Cn1cc(C(=O)c2cc([N+](=O)[O-])ccc2I)c2ccccc21 (centres unmarked) [AM1241, reference compound]",IL-1B gene expression,[1],significantly downregulate
same,IL-6 gene expression,[1],significantly downregulate
same,Nos2 gene expression,[1],significantly downregulate
same,TNF-α gene expression,[1],Neither of these drugs showed any significant effect
same,cytotoxicity,F-11 (neuronal) cells,significantly increased cytotoxicity
CCCN1CCCC[C@H]1C(=O)Nc1c(C)cccc1C [Ropivacaine],"pain level after the anesthetic action, versus initial pain",rat osteoarthritis model; after drug is no longer active,more pain
same,pain free duration,rat osteoarthritis model; rat model of osteoarthritis,2 days
